The record followed here is patent US4668698A, “[(4-phenyl-1,3-dioxan-cis-5-yl)alkyl]phenylalkanoic acid derivatives” (Imperial Chemical Industries PLC, priority 1983, dated 1987).

Usually pA2 stands for the negative logarithm of the molar antagonist concentration that doubles the agonist concentration needed for the same response. Low readings indicate lower antagonist potency, high ones higher antagonist potency. The term ED50 denotes the midpoint of the dose-response relation.

In assay [1] the test system is rabbit aortal strip (TXA2 mimetic agent U46619 as agonist). Kind of assay: rabbit aortal strip model, antagonism of the TXA2 mimetic U46619 (test a). The format is cell-based. The source says:
(a) The rabbit aortal strip model devised by Piper and Vane (Nature, 1969, 223, 29-35) using as agonist the TXA2 mimetic agent known as U46619 (R. L. Jones et alia in "Chemistry, Biochemistry and Pharmacological Activity of Prostanoids", eds. S. M. Roberts and F. Scheinmann, at p. 211; Pergamon Press, 1979);

Assay [2] concerns blood pressure at the carotid artery. Kind of assay: hypertensive effect of U46619 in anaesthetised rats (test d). To be noted: Rattus norvegicus, iv; intravenously via the jugular vein, anaesthetised male rats, n=3; read-out: ED50 (dose necessary to produce 50% of the maximum hypertensive effect). Type of assay: in vivo, rats (Alderley Park strain). Here is the method: (d) Male rats (Alderley Park strain) are anaesthetised with sodium pentobarbital and blood pressure is monitored at the carotid artery. The TXA2 mimetic agent U46619 is administered intravenously via the jugular vein and an ED50 (dose necessary to produce 50% of the maximum hypertensive effect) is established (n=3). The ED50 for U46619 is approximately 5 μg/kg. A test compound is then administered either intravenously via the jugular vein or orally via a cannula directly into the stomach and the animal challenged with an ED50 dose of U46619, five minutes after dosing with test compound and then successively every ten minutes until the hypertensive effect of U46619 is no longer blocked.

In the case of `CC1(C)OC[C@H](Cc2ccccc2CCCC(=O)O)[C@H](c2ccccc2O)O1` (relative stereo) [Example 3, 4-(o-[2,2-dimethyl-4-o-hydroxyphenyl-1,3 dioxan cis-5-ylmethyl]phenyl)butanoic acid], the pA2 in assay [1] stood at 6.19.

On to `CCCCC[C@H](O)/C=C/[C@@H]1[C@@H](C/C=C\CCCC(=O)O)[C@H]2CO[C@@H]1C2` [Example U46619], for which the ED50 in assay [2] was about 5 µg/kg.
